# Test results from paper PMC8409945, “In silico identification and experimental validation of cellular uptake and intracellular labeling by a new cell penetrating peptide derived from CDN1” (Drug Delivery, 2021).
# Experiments:
# cells = assay: Cellular uptake of FITC-labeled peptides: comparison of CPPs, temperature and inhibitors (cell line not stated); type: cell-based; conditions: 1 h
# Procedure: (§1) All cells (thawed cells were passaged less than 5 times) were suspended in 0.5 ml media and cultured in a 24-well plate at a concentration of 1.6 × 10^5 cells per well overnight. […] After incubation, the cells were washed with PBS three times and then imaged by fluorescence microscopy with 20 times lens (Nikon, Tokyo, Japan).
# (§2) To determine the penetration efficiency of CPP, the cellular uptake of the indicated concentration of CPP was quantified by multimode spectrophotometry Peptide incubation. The washing step was the same as above, followed by cell lysate collection with 0.3 ml/well-lysing buffer (0.1 M NaOH) for 10 minutes, and then serially centrifuged at 110 g for 5 minutes. A plate-reader spectrophotometer (Tecan, Mannedorf, Switzerland) was used to quantify the fluorescence intensity of each well’s supernatant at the wavelengths of 485 nm in excitation and 535 nm in emission. The protein concentration of supernatant measured by Bradford assay was used to normalize fluorescence intensity. The fluorescence of cellular uptake was expressed as intensity per mg of total cellular protein. Experiments of quantification indicated in this paper were repeated at least three times.
# HepG2 cells = assay: Cellular uptake of FITC-labeled peptides, fluorescence microscopy and lysate fluorescence quantification; type: cell-based, human
# Procedure: as §1, §2
# [1] = Peptide aggregation assay by native PAGE; type: physicochemical; conditions: 4 µl peptide 500 µM in PBS, 6.5% native PAGE; Figure S5(B)
# Procedure for mouse erythrocytes: Mouse erythrocytes free of plasma components were isolated and purified from mouse blood by centrifugation and wash. […] A value of 100% cell lysis was measured by the incubation of erythrocytes incubated with 0.1% Triton X-100.
substance,measurement,setting,value
FITC-(Acp)-RKRRQTSMTDFYHSKRRLIFSKRK [P2],Penetrating efficiency at different temperature,"cells; FITC-P2 5 µM, different temperature, 3 replications, Figure 5(A,B)",temperature dependent
same,Penetration efficiency in the presence of endocytosis-related inhibitors,"cells; FITC-P2 5 µM, NaN3, NH4Cl, Heparin, Serum, MβCD, Wortmannin, hyperosmotic sucrose, Chlorpromazine, EIPA, 3 replications, Figure 5(C,D)",significantly decrease
same,Penetration in the presence of wortmannin and hyperosmotic sucrose,"cells; FITC-P2 5 µM, wortmannin and hyperosmotic sucrose, Figure 5(C,D)",slightly blocked
same,Penetration efficiency compared with well-known CPPs,"cells; FITC-labeled peptides 5 µM, microscopy and fluorescence intensity normalized to protein, 3 replications, Figure 4(C,D)",higher penetration efficiency than MT23 but lower than TAT and hPP10 and Dot1l
same,Red blood cell membrane damage (hemolysis),mouse erythrocytes,did not observe red blood cell membrane damage
same,Fluorescence microscopy and normalized fluorescence intensity versus incubation time,HepG2 cells,significantly increased with incubation time
same,Aggregation propensity by native PAGE,[1],a single band of P2 and without apparent aggregation
